Values of other authors in patent US4916163A, “Spray-dried lactose formulation of micronized glyburide” (The Upjohn Company, priority 1985, dated 1990).

System: Type II (adult-onset) diabetes mellitus
Details: in words, background

COc1ccc(Cl)cc1C(=O)NCCc1ccc(S(=O)(=O)NC(=O)NC2CCCCC2)cc1 [glyburide, N-[4-(β-[2-methoxy-5-chloro-benzamido]-ethyl)-benzenesulfonyl]-N'-cyclohexyl-urea]
Reduction of serum glucose concentrations: effective in reducing serum glucose concentrations
